Measured values published in ChEMBL document CHEMBL4316584, “All that glitters is not gold: Panning cytotoxic natural products and derivatives with a fused tricyclic backbone by the estimation of their leadlikeness for cancer treatment” (Eur J Med Chem, 2019).

Each compound was assayed on HeLa (assay: Cytotoxicity against human HeLa cells after 48 hrs by MTT assay). Conditions: not given.
Type: functional, cell-based

In order of rising IC50:
1. CCOc1ccc(/C=C2\CCc3c([nH]c4ccc(C)cc34)C2=O)cc1OCC  0.8 µM
2. Cc1cccc2c1ccc1cc(C(C)CO)c(=O)oc12 (centres undefined)  0.86 µM
3. CCOc1ccc(/C=C2\CCc3c([nH]c4c(C)cccc34)C2=O)cc1OCC  1.5 µM
4. CCOc1ccc(/C=C2\CCc3c([nH]c4ccc(Cl)cc34)C2=O)cc1OCC  2.73 µM
5. CC(=O)N1N=C(c2ccco2)CC1c1cc2c([nH]c3ccccc32)c(-c2ccc(F)c(F)c2)n1 (centres undefined)  3.38 µM
6. COc1cc(-c2nc(C3CC(c4cccs4)=NN3C(C)=O)cc3c2[nH]c2ccccc23)cc(OC)c1OC (centres undefined)  4.51 µM
7. CC(=O)N1N=C(c2ccc[nH]2)CC1c1cc2c([nH]c3ccccc32)c(-c2ccc(C(F)(F)F)cc2)n1 (centres undefined)  6.24 µM
8. CC(C)C1=C(O)C(=O)C2=C(C=C[C@H]3C(C)(C)CCC[C@]23C)C1=O  6.56 µM
9. CC(C)c1ccc2c(c1)CC[C@H]1[C@](C)(C(=O)NC(=S)N[C@@H](Cc3ccccc3)C(=O)Nc3ccccn3)CCC[C@]21C  6.58 µM
10. COc1cc(-c2nc(/C=C/C(=O)c3cccs3)cc3c2[nH]c2ccccc23)cc(OC)c1OC  6.91 µM
11. O=C(/C=C/c1cc2c([nH]c3ccccc32)c(-c2ccc(C(F)(F)F)cc2)n1)c1ccc[nH]1  7.24 µM
12. CC(C)c1cc2c(cc1O)[C@@]1(C)CCCC(C)(C)[C@@H]1[C@@H](O)C2=O  7.7 µM
13. Cc1cccc2c1ccc1cc(C(C)C)c(=O)oc12  7.92 µM
14. CC(=O)N1N=C(c2cccs2)CC1c1cc2c([nH]c3ccccc32)c(-c2ccc(F)c(F)c2)n1 (centres undefined)  8.7 µM
15. O=C(/C=C/c1cc2c([nH]c3ccccc32)c(-c2ccc(C(F)(F)F)cc2)n1)c1cccs1  9.54 µM
16. COc1c(O)cc2oc3cc(O)c(CC=C(C)C)c(O)c3c(=O)c2c1C/C=C(\C)CCC=C(C)C [COWANIN]  11.7 µM
17. COc1cc(-c2nc(/C=C/C(=O)c3ccc(O)cc3)cc3c2[nH]c2ccccc23)cc(OC)c1OC  12.5 µM
18. CC(C)c1ccc2c(c1)CC[C@H]1[C@](C)(C(=O)NC(=S)N[C@@H](Cc3ccccc3)C(=O)Nc3ccccc3Br)CCC[C@]21C  12.7 µM
19. COc1cc2oc3cc(O)c(OC)c(CC=C(C)C)c3c(=O)c2c(O)c1CC=C(C)C  12.8 µM
20. CC(C)c1ccc2c(c1)CC[C@H]1[C@](C)(C(=O)NC(=S)N[C@@H](Cc3ccccc3)C(=O)Nc3cccc4ccccc34)CCC[C@]21C  12.8 µM
21. COc1cc(-c2nc(/C=C/C(=O)c3ccc(F)cc3)cc3c2[nH]c2ccccc23)cc(OC)c1OC  13.4 µM
22. COc1ccc(-c2nc(/C=C/C(=O)c3ccc(N)cc3)cc3c2[nH]c2ccccc23)cc1OC  13.5 µM
23. CC(C)c1ccc2c(c1)CC[C@H]1[C@](C)(C(=O)NC(=S)N[C@@H](C)C(=O)Nc3ccccn3)CCC[C@]21C  14.3 µM
24. COc1cc(-c2nc(/C=C/C(=O)c3ccc(N)cc3)cc3c2[nH]c2ccccc23)ccc1F  15.2 µM
25. COc1ccc(NC(=O)[C@H](Cc2ccccc2)NC(=S)NC(=O)[C@]2(C)CCC[C@]3(C)c4ccc(C(C)C)cc4CC[C@@H]23)cc1  15.6 µM
26. COc1cc(-c2nc(Cn3cc(CN4C(=O)c5ccc(C)cc5C4=O)nn3)cc3c2[nH]c2ccccc23)cc(OC)c1OC  15.6 µM
27. CC(C)c1ccc2c(c1)CC[C@H]1[C@](C)(CO)CCC[C@]21C [POMIFERIN A]  15.7 µM
28. CC(C)c1ccc2c(c1)CC[C@H]1[C@](C)(C(=O)NC(=S)N[C@@H](Cc3ccccc3)C(=O)Nc3ccc(Br)cc3)CCC[C@]21C  15.7 µM
29. COc1cc2c(=O)c3c(O)c(C/C=C(\C)CCC=C(C)C)c(O)cc3oc2cc1O [COWAXANTHONE]  15.8 µM
30. Cc1cc(C)cc(NC(=O)[C@H](Cc2ccccc2)NC(=S)NC(=O)[C@]2(C)CCC[C@]3(C)c4ccc(C(C)C)cc4CC[C@@H]23)c1  15.8 µM
31. COc1c(O)cc2oc3cc(O)c(C/C=C(/C)CO)c(O)c3c(=O)c2c1C/C=C(\C)CCCC(C)(C)O  16.7 µM
32. CC(C)c1ccc2c(c1)CC[C@H]1[C@](C)(C(=O)NC(=S)N[C@@H](Cc3ccccc3)C(=O)Nc3ccccc3Cl)CCC[C@]21C  17 µM
33. CC(C)c1ccc2c(c1)CC[C@H]1[C@](C)(C(=O)NC(=S)N[C@@H](Cc3ccccc3)C(=O)Nc3ccc(Cl)cc3)CCC[C@]21C  17.2 µM
34. COc1c(O)cc2oc3cc(O)c(C/C=C(/C)CO)c(O)c3c(=O)c2c1CCC(C)(O)CCC=C(C)C (centres undefined)  17.2 µM
35. COc1cc(NC(=O)[C@H](Cc2ccccc2)NC(=S)NC(=O)[C@]2(C)CCC[C@]3(C)c4ccc(C(C)C)cc4CC[C@@H]23)cc(OC)c1OC  17.5 µM
36. Cc1ccccc1NC(=O)[C@H](Cc1ccccc1)NC(=S)NC(=O)[C@]1(C)CCC[C@]2(C)c3ccc(C(C)C)cc3CC[C@@H]12  17.7 µM
37. CC(C)c1cc(C(=O)O)c2c(c1O)O[C@H]1C(C)(C)CCC[C@]21C  17.8 µM
38. COc1cc(NC(=O)[C@H](C)NC(=S)NC(=O)[C@]2(C)CCC[C@]3(C)c4ccc(C(C)C)cc4CC[C@@H]23)cc(OC)c1OC  18.1 µM
39. Nc1ccc(C(=O)/C=C/c2cc3c([nH]c4ccccc43)c(-c3ccc(F)cc3)n2)cc1  18.5 µM
40. Cc1cc(C)cc(NC(=O)[C@H](C)NC(=S)NC(=O)[C@]2(C)CCC[C@]3(C)c4ccc(C(C)C)cc4CC[C@@H]23)c1  18.6 µM
41. C=CCc1cc2oc3cc(OC)cc(O)c3c(=O)c2c(OC)c1O  18.7 µM
42. CC(C)c1ccc2c(c1)CC[C@H]1[C@](C)(C(=O)NC(=S)N[C@@H](Cc3ccccc3)C(=O)Nc3ccccc3F)CCC[C@]21C  18.8 µM
43. CC(C)c1ccc2c(c1)CC[C@H]1[C@](C)(C(=O)NC(=S)N[C@@H](C)C(=O)Nc3ccc(Br)cc3)CCC[C@]21C  19 µM
44. CC(=O)N1N=C(c2cccs2)CC1c1cc2c([nH]c3ccccc32)c(-c2ccc(C(F)(F)F)cc2)n1 (centres undefined)  19 µM
45. Cc1ccc(NC(=O)[C@H](Cc2ccccc2)NC(=S)NC(=O)[C@]2(C)CCC[C@]3(C)c4ccc(C(C)C)cc4CC[C@@H]23)cc1  19.1 µM
46. CC(C)c1ccc2c(c1)CC[C@H]1[C@](C)(C(=O)NC(=S)N[C@@H](C)C(=O)Nc3ccccc3Cl)CCC[C@]21C  19.7 µM
47. NCCCCNCCNCc1c2ccccc2c(CNCCNCCCCN)c2ccccc12  20 µM

What follows are compounds tested on HCT-116 (assay: Cytotoxicity against human HCT116 cells after 48 hrs by MTT assay). Conditions: HCT-116, 48 h.
Type: functional, cell-based

In order of falling IC50:
1. O=c1c2ccc(O)cc2oc2cc(O)cc(O)c12  19.8 µM
2. CCOC(=O)CN(C)CC1CCc2c(n(C)c3ccccc23)C1=O (centres undefined)  18.9 µM
3. O=c1c2ccc(O)c(O)c2oc2cc(O)cc(O)c12  18.6 µM
4. O=c1c2ccc(O)c(O)c2oc2c(O)c(O)ccc12  18.5 µM
5. CNC1=CC(=O)c2c(O)c3c(c(O)c2C1=O)C[C@](C)(O)[C@H](O)C3  16.6 µM
6. CC1CCN(C2=CC(=O)c3c(O)c4c(c(O)c3C2=O)C[C@](C)(O)[C@H](O)C4)CC1  14.9 µM
7. CN1CCN(CC2CCc3c(n(C)c4ccccc34)C2=O)CC1 (centres undefined)  14 µM
8. Cn1c2c(c3ccccc31)CCC(CN1CCCC1)C2=O (centres undefined)  12.8 µM
9. CCN(C)CC1CCc2c(n(C)c3ccccc23)C1=O (centres undefined)  11.8 µM
10. CCCCCCOc1cccc2c1C(=O)c1c(OCCCCCC)cc(Cn3cnc4c(N)ncnc43)cc1C2=O  8.1 µM
11. Nc1ncnc2c1ncn2Cc1cc(O)c2c(c1)C(=O)c1cccc(O)c1C2=O  7.8 µM
12. C[C@]1(O)Cc2c(O)c3c(c(O)c2C[C@H]1O)C(=O)C=C(NCc1ccc(F)cc1)C3=O  7.09 µM
13. CC(=O)OC[C@]12Oc3ccc(-c4ccc(O)c5c4O[C@@]4(CO)C(=C(O)C[C@@H](C)[C@H]4OC(C)=O)C5=O)c(O)c3C(=O)C1=C(O)C[C@@H](C)[C@H]2OC(C)=O  6.92 µM
14. CCCCn1c2c(c3ccccc31)CCC(CN1CCOCC1)C2=O (centres undefined)  5.82 µM
15. C[C@]1(O)Cc2c(O)c3c(c(O)c2[C@H](O)[C@H]1O)C(=O)C=C(NCc1ccc(F)cc1)C3=O  4.92 µM
16. Cn1c2c(c3ccccc31)CCC(CN1CCOCC1)C2=O (centres undefined)  4.73 µM
17. COC1=CC(=O)c2c(cc3c(c2O)C[C@@H](O)[C@@](C)(O)C3)C1=O [NIGROSPORIN B]  4.7 µM
18. CC(C)=CCn1c2c(c3ccccc31)CCC(CN1CCOCC1)C2=O (centres undefined)  4.55 µM
19. CC(=O)OC[C@]12Oc3ccc(-c4ccc5c(c4O)C(=O)C4=C(O)C[C@@H](C)[C@@H](OC(C)=O)[C@@]4(CO)O5)c(O)c3C(=O)C1=C(O)C[C@@H](C)[C@H]2OC(C)=O [DICERANDROL B]  3.94 µM
20. Cc1nccc2c3ccccc3n(CCCCn3c4ccccc4c4ccnc(C)c43)c12  3.58 µM
21. CCCCNC1=CC(=O)c2c(O)c3c(c(O)c2C1=O)C[C@](C)(O)[C@H](O)C3  3.29 µM
22. CCCCCCNC1=CC(=O)c2c(O)c3c(c(O)c2C1=O)C[C@](C)(O)[C@H](O)C3  3.14 µM
23. Cn1c2c(c3ccccc31)CCC(Cn1ccnc1)C2=O (centres undefined)  3.12 µM
24. C[C@]1(O)Cc2c(O)c3c(c(O)c2[C@H](O)[C@H]1O)C(=O)C(SCCCO)=C(SCCCO)C3=O  3.08 µM
25. COc1cc(O)c2c(c1)C(=O)C1=C(C[C@@H](O)[C@@](C)(O)[C@@H]1O)C2=O [ALTERSOLANOL C]  3.03 µM
26. CCCCCCSC1=C(SCCCCCC)C(=O)c2c(O)c3c(c(O)c2C1=O)C[C@@H](O)[C@@](C)(O)C3  2.94 µM
27. O=C1c2cccc(O)c2C(=O)c2c(O)cc(Cn3cc(F)c(=O)[nH]c3=O)cc21  2.8 µM
28. CCCCSC1=C(SCCCC)C(=O)c2c(O)c3c(c(O)c2C1=O)C[C@@H](O)[C@@](C)(O)C3  2.75 µM
29. CC(=O)O[C@@H]1[C@H](C)CC(O)=C2C(=O)c3c(ccc(-c4ccc5c(c4O)C(=O)C4=C(O)C[C@@H](C)[C@@H](OC(C)=O)[C@@]4(CO)O5)c3O)O[C@@]21CO [DICERANDROL A]  2.64 µM
30. CCSC1=C(SCC)C(=O)c2c(O)c3c(c(O)c2C1=O)C[C@](C)(O)[C@H](O)[C@H]3O  0.95 µM
31. CCCCCCSC1=C(SCCCCCC)C(=O)c2c(O)c3c(c(O)c2C1=O)C[C@](C)(O)[C@H](O)[C@H]3O  0.74 µM
32. CO[C@H]1[C@H](O)C[C@@H](O[C@@H]2C[C@H](Oc3cc4cc5c(c(O)c4c(O)c3C)C(=O)[C@@H](O[C@H]3C[C@H](O[C@H]4C[C@H](O[C@H]6C[C@@](C)(O)[C@@H](OC(C)=O)[C@H](C)O6)[C@H](O)[C@@H](C)O4)[C@H](O)[C@@H](C)O3)[C@H]([C@H](OC)C(=O)[C@@H](O)[C@@H](C)O)C5)O[C@H](C)[C@H]2OC(C)=O)O[C@@H]1C  0.3 µM
